Assay results reported in patent US20070037833A1, “Compositions and methods for inhibiting neurodegeneration” (priority 2005, published 2007).
Several values for one entry are separate records, joined by “and”; a condition that tells them apart may be missing. Equal values may be shown once. Entries after “also recorded” stand apart in the source; their conditions may differ.

Key:
[1] = system: motor neurons in embryonic rat spinal cord cultures; assay: Excitotoxicity assay (100 μM kainic acid) in mixed spinal cord cultures; format: cell-based
Procedure: Unless otherwise specified, BDNF was added to all cultures.
Many previous in vitro investigations have identified motor neurons in mixed spinal cord cell culture by immunostaining for non-phosphorylated neurofilaments (or peripherin) and restricting analysis to cells with a soma diameter of 25 μm or greater (Carriedo et al., 2000; Hu and Kalb, 2003). We wanted to confirm the validity of this approach using an independent method for determining whether a given cell is a motor neuron. To specifically identify motor neurons in our cultures we purified these cells by metrizamide gradient and immunopanning techniques (Henderson et al., 1993; Fryer et al., 1999), live-labeled them with CM-DiI, and added these fluorescently-tagged, bona fide motor neurons to mixed cell cultures at the time of initial plating. All CM-DiI labeled cells stained for motor neurons markers such as non-phosphorylated neurofilament H (using antibody, SMI-32), peripherin, choline acetyl transferase (ChAT) and islet ½ (FIG. 1, panel a.). We then subjected spinal cord cultures to an excitotoxic insult and determined motor neuron survival using multiple methods for identifying motor neurons. […] Since all SMI-32 (+) cells with cell body diameter of 25 μm or greater were CM-DiI (+) and all CM-DiI (+) cells were SMI-32 (+), for the remainder of the studies herein, we could confidently study motor neuron death in vitro by counting SMI-32 (+) cells with a cell body diameter of 25 μm or greater.

[2] = system: Trk; assay: Immunoblot for phosphoTrk in spinal cord cultures; format: cell-based, rat
Procedure: (§1) Cells were lysed in 1% NP-40 lysis buffers containing protease inhibitors, subjected to SDS-PAGE and immunoblotted as previously described (Fryer et al., 1999; Fryer et al., 2000). For immunoprecipitation, lysates from 60 mm dishes were pre-cleared by incubation with protein A beads (Santa Cruz), incubated with primary antibody (4 μg/ml)×2 hours then 50 μL of beads added and incubated overnight with gentle agitation at 4° C. Beads were pelleted, washed 5× with 10 mM Tris pH 7.4+0.5 mM EGTA+0.5 mM EDTA+0.1% NP40 before elution in 1× Laemelli sample buffer. Antibody sources: BD Transduction Labs—TrkB and MAP Kinase used at 1:500, Cell Signaling—Akt 1:1000; phosphoTrk (tyr490) 1:1000; phospho p42/44 MAP Kinase (thr 202/tyr204) 1:1000; phosphoAkt (ser473) 1:500; IGFI antibody (tyr 1131) 1:500. Upstate—adenosine A2a 1:1000. Sigma—actin 1:200. Biosource—active src (clone 28) 1:200.
(§2) We next asked about the effect of the adenosine A2 receptor antagonism on Trk signaling. Cultures of spinal cord cells (grown in the presence of a cocktail of trophic factors including 10 ng/ml BDNF) received KW6002 (1 μM), MRS1754 (50 nM) or vehicle (DMSO 0.1%) and 24 hrs. later, lysates were prepared for immunoblots for Trk and the MAP kinase downstream signaling module (FIG. 2, panel a). Immunoblots for phosphoTrk and phosphoMAPK were employed to monitor the state of activation of these proteins.
(§3) We followed up these observations by determining the effect of enprofylline on Trk signaling and determined the extent to which the resultant biochemical changes mimic the effects of direct pharmacological Trk antagonism with CEP4416. […] The effect of drug treatment on AKT was particularly marked. […] To determine the specificity of these agents, we examined their effect on Insulin-like growth factor 1 (IGF1) signaling through the IGF receptor tyrosine kinase (IGFR). […] It is unlikely that phosphodiesterase activity of enprofylline can explain these observations as increased cAMP levels enhance, not suppress, TrkB activation (Boulanger and Poo, 1999; Ji et al., 2005).

[3] = system: MAP kinase; assay: Immunoblot for phosphoMAPK in spinal cord cultures; format: cell-based, rat
Procedure: as §1, §2, §3

[4] = system: IGF receptor tyrosine kinase (IGFR); assay: Immunoblot for phospho-IGFR in spinal cord cultures; format: cell-based, rat
Procedure: as §1, §3

[5] = system: motor neurons expressing G85R SOD; assay: Motor neuron death from HSV-expressed mutant SOD in spinal cord cultures; format: cell-based, rat; conditions: 6 days post-infection; treatment daily or every other day
Description: Various cDNAs were cloned into the PrpUC amplicon plasmid and were used to generate recombinant HSV as previously described (Neve et al., 1997). The titer of viruses used in these studies were routinely 3-5×10^7 plaque-forming units/ml. The cDNA for wild type/mutant SOD and wild type/mutant p150^glued were gifts of D. Borchelt and E. Holzbaur, respectively. The K295R mutant version of chick src was a gift of J. Brugge.
Mutations in superoxide dismutase (SOD) or the p150^glued subunit of dynactin are known to account for a familial form of ALS in a subpopulation of individuals (Rosen, 1993; Puls et al., 2003; Bruijn et al., 2004). We inquired whether expression the mutant forms of SOD or p150^glued caused motor neuron death in vitro and if Trk antagonism was neuroprotective. Recombinant herpes simplex viruses (HSVs) were generated that expressed wild type or mutant form of SOD (G85R) and wild type or mutant p150^glued (G59S). […] Spinal cord cultures were infected with virus at 14 DIV and the number of motor neurons was determined 2, 4, 6 or 8 days later (FIG. 4, panel a.).
We next determined if KW6002 could protect motor neurons from the toxic effects of mutant proteins. Spinal cord cultures were infected with viruses expressing wild type or mutant versions of SOD or p150^glued at 14 DIV, then treated with drug or vehicle for 4 days (FIG. 4, panel b.). […]

[6] = system: purified motor neurons
Procedure: Embryonic Sprague-dawley rat spinal cord neurons were grown on previously established cortical astrocyte monolayers as previously described (Hu and Kalb, 2003). Briefly, the cerebral cortex of postnatal day (P) 1-3 rat pups was dissociated and plated on tissue culture plastic (Primeria) or laminin/polylysine coated glass overslips and maintained in Minimal Essential Media (10% horse serum, 10% fetal bovine serum) and 10 μM AraC was added for 1 day to arrest further proliferation when confluent. Under these conditions, no cortical neurons are present in these cultures. […]
The media was removed (and saved), cells were exposed to 100 μM kainic acid or vehicle in Locke's buffer for one hour, washed three times in Locke's buffer not containing kainic acid and the original media restored to each dish (Hu and Kalb, 2003). […] To quantify the number of stained cells, we counted the number of labeled cells from three non-overlapping fields using a 5× objective on a Zeiss upright Axioskop microscope and the value from one coverslip was averaged. […] When cell body diameter was assessed in select experiments, a reticule was introduced into an eye piece and the length of the long axis of a neuron noted. […]

[7] = 6 hours post drug administration
[8] = 48 hours post drug administration

CCCn1c(=O)[nH]c(=O)c2[nH]cnc21 [enprofylline, 3-propylxanthine]
% motor neuron death, short term (acute) treatment ([1]; drug added 30 minutes prior to excitotoxic challenge, counted 24 hours later): ~40% and 46±4% | excitotoxic motor neuron death ([1]; drug for 4 days (added 4 and 2 days) prior to 100 μM kainic acid 1 h, SMI-32(+) motor neurons counted 24 h later): completely blocked the loss of SMI(+) neurons; also recorded: no excitotoxic motor neuron death | abundance of phosphoTrk ([2]; 6, 24 or 48 hours, 100 μM enprofylline, 30 nM CEP-4416): decrease in the abundance of phosphoTrk at all time points | phosphorylation of Trk [2, 7]: decreases in the phosphorylation of Trk, MAP kinase and Akt | abundance of phosphoTrk ([2]; 24 hours treatment): robust reduction in phosphoTrk, phosphoMAPK and phosphoAKT | abundance of phosphoTrk [2, 8]: decrease in phosphoTrk could still be detected | abundance of phosphoMAPK ([3]; 6 and 24 hours, 100 μM enprofylline, 30 nM CEP-4416): decrease in the abundance of phosphoAKT and phosphoMAPK at 6 and 24 hours | phosphorylation of MAP kinase [3, 7]: decreases in the phosphorylation of Trk, MAP kinase and Akt | abundance of phosphoMAPK ([3]; 24 hours treatment): robust reduction in phosphoTrk, phosphoMAPK and phosphoAKT | phosphorylation of MAPK [3, 8]: largely returned to baseline | IGF1-induced IGFR phosphorylation ([4]; 24 hour pretreatment, then acute IGF1): neither CEP-4416 nor enprofylline blunted the acute response; also recorded: undiminished by 24 hour pretreatment | basal state of IGFR phosphorylation ([4]; 24 hour treatment): Neither drug led to an alteration in the abundance in the phosphorylated species; also recorded: had no effect on the basal state of IGFR phosphorylation | motor neuron survival / toxicity of G85R SOD [5]: significantly greater number of motor neurons; also recorded: completely prevented the toxicity of mutant protein expression | % motor neuron death after excitotoxic insult ([6]; 24 hours pre-treatment, grown in BDNF+CT1): 3±1% | death of motor neurons after kainic acid ([6]; pre-treated for 24 hrs): No death of motor neurons occurred
